Reference: BindingDB's records for doi:10.1016/j.bmcl.2006.10.013 (Abbott Laboratories, 2007)

Biological target: Transcription factor Jun (Homo sapiens, UniProt P05412)
Experiment: Inhibition of c-Jun phosphorylation in HepG2 cells

Chain of Transcription factor Jun (P05412 whole entry): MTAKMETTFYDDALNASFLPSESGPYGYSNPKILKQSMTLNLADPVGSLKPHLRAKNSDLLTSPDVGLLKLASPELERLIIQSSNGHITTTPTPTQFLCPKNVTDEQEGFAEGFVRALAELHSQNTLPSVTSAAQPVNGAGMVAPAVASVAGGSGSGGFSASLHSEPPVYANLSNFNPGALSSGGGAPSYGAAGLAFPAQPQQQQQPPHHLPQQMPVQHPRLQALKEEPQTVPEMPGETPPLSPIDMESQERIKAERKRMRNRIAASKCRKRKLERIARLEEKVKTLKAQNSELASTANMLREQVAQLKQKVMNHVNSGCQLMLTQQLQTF

- EC50: 318 nM
SMILES: CCOc1nc(C(=O)NCc2ccc(S(C)(=O)=O)cc2)cc(N)c1C#N [4-amino-5-cyano-6-ethoxy-N-[(4-methanesulfonylphenyl)methyl]pyridine-2-carboxamide]
